In ChEMBL document CHEMBL1914442, “Metabolism-directed design of oxetane-containing arylsulfonamide derivatives as γ-secretase inhibitors” (J Med Chem, 2011):

Legend:
[1] = Apparent permeability from apical to basolateral side of dog RRCK cells by transwell assay; assay type: ADME, cell-based, Canis lupus familiaris, MDCKII-LE; conditions: MDCK
physchem = conditions: octanol/water, pH 7.4
[2] = Drug uptake in wild-type mouse 129/sve cerebrospinal fluid at 100 mg/kg, sc administered as a single dose measured 4 hr post-dose by LC-MS analysis; assay type: ADME, organism-based; parameters: dose 100 mg/kg, route subcutaneous; conditions: read-out: Drug uptake
[3] = Drug uptake in wild-type mouse 129/sve cerebrospinal fluid at 100 mg/kg, sc administered as a single dose measured 1 hr post-dose by LC-MS analysis; assay type: ADME, organism-based; parameters: dose 100 mg/kg, route subcutaneous; conditions: read-out: Drug uptake
[4] = Oral bioavailability in mouse; assay type: ADME, organism-based; conditions: in vivo
[5] = Oral bioavailability in rat; assay type: ADME, organism-based; conditions: in vivo

A Papp A→B [1] of 6.01 ×10⁻⁶ cm/s and a logD (physchem) of 5.15 were found for `NC(=O)[C@@H](CCC(F)(F)F)N(CC1CCCC1)S(=O)(=O)c1ccc(Cl)cc1` in this work.
A Papp A→B [1] of 18.1 ×10⁻⁶ cm/s and a logD (physchem) of 3.8 were found for `CC1(C)C[C@H](CN([C@H](CCC(F)(F)F)C(N)=O)S(=O)(=O)c2ccc(Cl)cc2)O1` in this work.
A Papp A→B [1] of 11.1 ×10⁻⁶ cm/s was found for `NC(=O)[C@@H](CCC(F)(F)F)N(CC1CCC1)S(=O)(=O)c1ccc(Cl)cc1` in this work.
A Papp A→B [1] of 19.1 ×10⁻⁶ cm/s and a logD (physchem) of 3.6 were found for `NC(=O)[C@@H](CCC(F)(F)F)N(C[C@H]1CCCO1)S(=O)(=O)c1ccc(Cl)cc1` in this work.
A Papp A→B [1] of 34.9 ×10⁻⁶ cm/s, a concentration at 4 h [2] of 59.6 nM and a concentration at 1 h [3] of 447 nM were found for `NC(=O)[C@@H](CCC(F)(F)F)N(C[C@@H]1CCO1)S(=O)(=O)c1ccc(Cl)cc1` in this work. The bioavailability [4] was under 5%, the logD (physchem) was 2.6 and the bioavailability [5] was under 5%.
A Papp A→B [1] of 14.9 ×10⁻⁶ cm/s, a bioavailability [4] of under 5% and a logD (physchem) of 3.8 were found for `CC1(C)C[C@@H](CN([C@H](CCC(F)(F)F)C(N)=O)S(=O)(=O)c2ccc(Cl)cc2)O1` in this work. The bioavailability [5] was under 5%.
A Papp A→B [1] of 18.4 ×10⁻⁶ cm/s and a logD (physchem) of 3.7 were found for `NC(=O)[C@@H](CCC(F)(F)F)N(C[C@@H]1CCCOC1)S(=O)(=O)c1ccc(Cl)cc1` in this work.
A Papp A→B [1] of 22.4 ×10⁻⁶ cm/s and a logD (physchem) of 3.5 were found for `NC(=O)[C@@H](CCC(F)(F)F)N(C[C@@H]1CCCO1)S(=O)(=O)c1ccc(Cl)cc1` in this work.
A Papp A→B [1] of 21.8 ×10⁻⁶ cm/s was found for `C[C@H]1C[C@@H](CN([C@H](CCC(F)(F)F)C(N)=O)S(=O)(=O)c2ccc(Cl)cc2)O1` in this work.
A Papp A→B [1] of 21.2 ×10⁻⁶ cm/s was found for `C[C@@H]1C[C@@H](CN([C@H](CCC(F)(F)F)C(N)=O)S(=O)(=O)c2ccc(Cl)cc2)O1` in this work.
A Papp A→B [1] of 26.3 ×10⁻⁶ cm/s and a logD (physchem) of 3.5 were found for `NC(=O)[C@@H](CCC(F)(F)F)N(CC1CCOCC1)S(=O)(=O)c1ccc(Cl)cc1` in this work.
A Papp A→B [1] of 13.4 ×10⁻⁶ cm/s and a logD (physchem) of 4.3 were found for `NC(=O)[C@@H](CCC(F)(F)F)N(C[C@H]1CCCCO1)S(=O)(=O)c1ccc(Cl)cc1` in this work.
A Papp A→B [1] of 26.4 ×10⁻⁶ cm/s and a logD (physchem) of 3.8 were found for `CC1(C)CO[C@H]1CN([C@H](CCC(F)(F)F)C(N)=O)S(=O)(=O)c1ccc(Cl)cc1` in this work.
A Papp A→B [1] of 15.4 ×10⁻⁶ cm/s and a logD (physchem) of 4.3 were found for `NC(=O)[C@@H](CCC(F)(F)F)N(C[C@@H]1CCCCO1)S(=O)(=O)c1ccc(Cl)cc1` in this work.
A Papp A→B [1] of 20.6 ×10⁻⁶ cm/s and a logD (physchem) of 2.75 were found for `NC(=O)[C@@H](CCC(F)(F)F)N(C[C@H]1COCCO1)S(=O)(=O)c1ccc(Cl)cc1` in this work.
A Papp A→B [1] of 21.7 ×10⁻⁶ cm/s and a logD (physchem) of 2.8 were found for `NC(=O)[C@@H](CCC(F)(F)F)N(C[C@H]1CCOC1)S(=O)(=O)c1ccc(Cl)cc1` in this work.
A Papp A→B [1] of 18.2 ×10⁻⁶ cm/s and a logD (physchem) of 3.6 were found for `NC(=O)[C@@H](CCC(F)(F)F)N(C[C@H]1CCCOC1)S(=O)(=O)c1ccc(Cl)cc1` in this work.
A Papp A→B [1] of 20.5 ×10⁻⁶ cm/s and a logD (physchem) of 2.8 were found for `NC(=O)[C@@H](CCC(F)(F)F)N(C[C@@H]1CCOC1)S(=O)(=O)c1ccc(Cl)cc1` in this work.
A Papp A→B [1] of 28.7 ×10⁻⁶ cm/s and a logD (physchem) of 2.6 were found for `NC(=O)[C@@H](CCC(F)(F)F)N(C[C@H]1CCO1)S(=O)(=O)c1ccc(Cl)cc1` in this work.
A Papp A→B [1] of 22.3 ×10⁻⁶ cm/s and a logD (physchem) of 3.9 were found for `CC1(C)CO[C@@H]1CN([C@H](CCC(F)(F)F)C(N)=O)S(=O)(=O)c1ccc(Cl)cc1` in this work.
A Papp A→B [1] of 25.4 ×10⁻⁶ cm/s, a bioavailability [4] of under 5% and a logD (physchem) of 2.5 were found for `NC(=O)[C@@H](CCC(F)(F)F)N(CC1COC1)S(=O)(=O)c1ccc(Cl)cc1` in this work. It also gave a bioavailability [5] of under 5%.
A Papp A→B [1] of 4.42 ×10⁻⁶ cm/s was found for `NC(=O)[C@@H](CCC(F)(F)F)N(CC1CCCCC1)S(=O)(=O)c1ccc(Cl)cc1` in this work.
A Papp A→B [1] of 27.3 ×10⁻⁶ cm/s and a logD (physchem) of 2.75 were found for `NC(=O)[C@@H](CCC(F)(F)F)N(C[C@@H]1COCCO1)S(=O)(=O)c1ccc(Cl)cc1` in this work.
